These compounds were tested on Human cervical carcinoma KB cells (assay: Growth inhibition assay, KB cells (MTS)). Conditions: 72 h, read-out: IC50 (concentration causing 50% cell growth inhibition).
Assay type: cell-based
Method: Anticancer activities of the compounds of this invention were evaluated using a growth inhibition assay described in Kuo et al., Cancer Res. 2004, 64(13), 4621-4628.
Human cervical carcinoma KB cells were maintained in plastic dishes in DMEM medium supplemented with 10% fetal bovine serum. For in vitro treatment, tumor cells were seeded in […] of culture medium/well in 96-well plates to a final cell density of 6×10^3 cell/mL and incubated in a CO2 incubator at 37° C. for 24 h. The cells were treated with at least five different concentrations of a test compound, and incubated in a CO2 incubator at 37° C. for 72 h. The number of viable cells was estimated using MTS assay and absorbance was measured at 490 nm. For each test compound, dose-response curves were measured with at least five different drug concentrations, and the concentration causing 50% cell growth inhibition (IC50) compared with the control was calculated.
With `Cc1cc(=O)oc2c1ccc1oc(C(=O)c3ccc(OCCN4CCOCC4)cc3)c(-c3ccccc3)c12` [Compound 265] the IC50 was 1000 to 10000 nM.
Work on `Cc1cc(=O)oc2c1ccc1oc(C(=O)c3ccc4ccccc4c3)c(-c3ccc(F)cc3)c12` [Compound 220] yielded an IC50 of 101 to 999 nM.
Work on `Cc1cc(=O)oc2c1ccc1oc(C(=O)c3cccc(OCCCN4CCN(C)CC4)c3)c(-c3ccccc3)c12` [Compound 90] yielded an IC50 of 101 to 999 nM.
Work on `Cc1cc(=O)oc2c1ccc1oc(C(=O)c3ccccc3)c(-c3cccc(F)c3)c12` [Compound 133] yielded an IC50 of 101 to 999 nM.
`Cc1cc(=O)oc2c1ccc1oc(C(=O)c3cccc([N+](=O)[O-])c3)c(-c3ccccc3)c12` [Compound 66] gave an IC50 of 101 to 999 nM.
`O=C(c1ccccc1)c1oc2ccc3c4c(c(=O)oc3c2c1-c1ccccc1)CCCC4` [Compound 21] showed an IC50 of 1000 to 10000 nM.
With `Cc1cc(=O)oc2c1ccc1oc(C(=O)c3ccc(Cl)cc3)c(-c3ccc(Br)cc3)c12` [Compound 210] the IC50 was 1000 to 10000 nM.
With `Cc1cc(=O)oc2c1ccc1oc(C(=O)c3ccccc3)c(-c3ccccc3Cl)c12` [Compound 135] the IC50 was 101 to 999 nM.
Compound `CO/N=C(\c1ccccc1)c1oc2ccc3c(C)cc(=O)oc3c2c1-c1ccccc1` [Compound 176] has an IC50 of 1000 to 10000 nM.
`Cc1cc(=O)oc2c1ccc1oc(C(O)c3ccccc3)cc12` (stereo not shown) [Compound 226] showed an IC50 of 101 to 999 nM.
`Cc1cc(=O)oc2c1ccc1oc(C(=O)c3ccc(OC(F)(F)F)cc3)c(-c3ccccc3)c12` [Compound 38] showed an IC50 of 101 to 999 nM.
For `Cc1ccc(C(=O)c2oc3ccc4c(C)cc(=O)oc4c3c2-c2ccccc2)cc1` [Compound 41], the IC50 was 101 to 999 nM.
`Cc1cc(=O)oc2c1ccc1oc(C(=O)c3cccc(Cl)c3)c(-c3ccc(Br)cc3)c12` [Compound 217] gave an IC50 of 101 to 999 nM.
With `Cc1cc(=O)oc2c1ccc1oc(C(=O)c3ccc(F)cc3)c(-c3ccc(Br)cc3)c12` [Compound 209] the IC50 was 101 to 999 nM.
In the case of `Cc1cc(=O)oc2c1ccc1oc(C(=O)c3cccc(OCCOCCOCCO)c3)c(-c3ccccc3)c12` [Compound 177], the IC50 is reported as 101 to 999 nM.
Work on `CC(=O)c1oc2ccc3c(C)cc(=O)oc3c2c1-c1ccccc1` [Compound 119] yielded an IC50 of 1000 to 10000 nM.
For `CCCCCc1c(C(=O)c2ccccc2)oc2ccc3c(C)cc(=O)oc3c12` [Compound 156], the IC50 was 1000 to 10000 nM.
Compound `Cc1cc(=O)oc2c1ccc1oc(C(=O)c3cccc(OCCCOC4OC(CO)C(O)C(O)C4O)c3)c(-c3ccccc3)c12` (stereo not shown) [Compound 197] has an IC50 of 101 to 999 nM.
`Cc1cc(=O)oc2c1ccc1oc(C(=O)c3cc(F)ccc3F)c(-c3ccccc3)c12` [Compound 61] showed an IC50 of 101 to 999 nM.
In the case of `Cc1cc(=O)oc2c1ccc1oc(C(=O)c3cccc(OCCCCN(C)C)c3)c(-c3ccccc3)c12` [Compound 88], the IC50 is reported as 101 to 999 nM.
`Cc1cc(=O)oc2c1ccc1oc(C(=O)c3ccc(C(F)(F)F)cc3)c(-c3ccccc3)c12` [Compound 37] showed an IC50 of 1000 to 10000 nM.
`Cc1cc(=O)oc2c1cc(C)c1oc(C(=O)c3ccccc3)c(-c3ccccc3)c12` [Compound 8] showed an IC50 of 1000 to 10000 nM.
`Cc1cc(=O)oc2c1ccc1oc(C(=O)c3ccccc3)c(-c3ccc(Cl)cc3)c12` [Compound 137] showed an IC50 of 101 to 999 nM.
For `Cc1cc(=O)oc2c1ccc1oc(C(=O)c3cccn3C)c(-c3ccccc3)c12` [Compound 102], the IC50 was 1000 to 10000 nM.
In the case of `Cc1cc(=O)oc2c1ccc1oc(C(=O)c3ccco3)c(-c3ccccc3)c12` [Compound 92], the IC50 is reported as 101 to 999 nM.
With `Cc1cc(=O)oc2c1ccc1oc(C(=O)c3ccc(Cl)c(Cl)c3)c(-c3ccccc3)c12` [Compound 58] the IC50 was 101 to 999 nM.
In the case of `O=C(c1ccccc1)c1oc2ccc3c4ccccc4c(=O)oc3c2c1-c1ccccc1` [Compound 22], the IC50 is reported as 1000 to 10000 nM.
`Cc1c(Cc2ccccc2)c(=O)oc2c1ccc1oc(C(=O)c3ccccc3)c(-c3ccccc3)c12` [Compound 19] gave an IC50 of 1000 to 10000 nM.
`Cc1cc(=O)oc2c1ccc1oc(C(=O)c3ccc(OCCN(C)C)cc3)c(-c3ccccc3)c12` [Compound 266] gave an IC50 of 1000 to 10000 nM.
Compound `COc1ccccc1C(=O)c1oc2ccc3c(C)cc(=O)oc3c2c1-c1ccc(Br)cc1` [Compound 219] has an IC50 of 101 to 999 nM.
In the case of `Cc1cc(=O)oc2c1ccc1oc(C(=O)c3cccc(OCCCCCCO[Si](C)(C)C(C)(C)C)c3)c(-c3ccccc3)c12` [Compound 193], the IC50 is reported as 101 to 999 nM.
Compound `Cc1cc(=O)oc2c1ccc1oc(C(=O)c3ccccc3C(F)(F)F)c(-c3ccccc3)c12` [Compound 35] has an IC50 of 1000 to 10000 nM.
`Cc1cc(=O)oc2c1ccc1oc(C(=O)c3ccccc3)c(-c3ccco3)c12` [Compound 159] gave an IC50 of 101 to 999 nM.
With `Cc1cc(=O)oc2c1ccc1oc(C(=O)c3cccs3)c(-c3ccc(Br)cc3)c12` [Compound 254] the IC50 was 101 to 999 nM.
`Cc1cc(=O)oc2c1ccc1oc(C(=O)c3cccc(OCCCCN4CCCCC4)c3)c(-c3ccccc3)c12` [Compound 85] gave an IC50 of 101 to 999 nM.
Work on `O=C(c1ccccc1)c1oc2ccc3c(C(F)(F)F)cc(=O)oc3c2c1-c1ccccc1` [Compound 11] yielded an IC50 of 101 to 999 nM.
For `Cc1cc(=O)oc2c1ccc1oc(C(=O)c3ccc(-c4ccccc4)cc3)c(-c3ccccc3)c12` [Compound 52], the IC50 was 1000 to 10000 nM.
Work on `CCCCCCCCCCOc1cccc(C(=O)c2oc3ccc4c(C)cc(=O)oc4c3c2-c2ccccc2)c1` [Compound 244] yielded an IC50 of 101 to 999 nM.
`CCCCCCc1c(C(=O)c2ccccc2)oc2ccc3c(C)cc(=O)oc3c12` [Compound 157] showed an IC50 of 101 to 999 nM.
`Cc1ccc(C(=O)c2oc3ccc4c(C)cc(=O)oc4c3c2-c2ccccc2)o1` [Compound 94] showed an IC50 of 101 to 999 nM.
For `Cc1ccc(C(=O)c2oc3ccc4c(C)cc(=O)oc4c3c2-c2ccc(Br)cc2)cc1` [Compound 212], the IC50 was 1000 to 10000 nM.
`Cc1cc(=O)oc2c1ccc1oc(/C(=N/NC(N)=O)c3ccccc3)c(-c3ccccc3)c12` [Compound 174] showed an IC50 of 1000 to 10000 nM.
With `Cc1cc(=O)oc2c1ccc1oc(C(=O)c3cccc(C#N)c3)c(-c3ccccc3)c12` [Compound 42] the IC50 was 101 to 999 nM.
`Cc1cc(=O)oc2c1ccc1oc(C(=O)c3cccc(OCCN4CCN(C)CC4)c3)c(-c3ccccc3)c12` [Compound 89] showed an IC50 of 101 to 999 nM.
In the case of `Cc1cc(=O)oc2c1ccc1oc(C(=O)c3ccc(F)cc3)c(-c3ccccc3)c12` [Compound 46], the IC50 is reported as 101 to 999 nM.
`Cc1cc(=O)oc2c1ccc1oc(C(=O)c3ccccc3)c(-c3cccc(Cl)c3)c12` [Compound 136] was tested, and the IC50 was 101 to 999 nM.
Work on `CCCc1c(C(=O)c2ccccc2)oc2ccc3c(C)cc(=O)oc3c12` [Compound 155] yielded an IC50 of 101 to 999 nM.
`Cc1cc(=O)oc2c1ccc1oc(C(=O)c3ccc4ccccc4c3)c(-c3ccc(Br)cc3)c12` [Compound 208] was tested, and the IC50 was 1000 to 10000 nM.
With `Cc1cc(=O)oc2c1ccc1oc(C(=O)c3cccc(C(F)(F)F)c3)c(-c3ccccc3)c12` [Compound 36] the IC50 was 101 to 999 nM.
Compound `Cc1cc(=O)oc2c1ccc1oc(C(=O)c3ccccc3)c(-c3cccc4ccccc34)c12` [Compound 206] has an IC50 of 101 to 999 nM.
Work on `Cc1cc(=O)oc2c1ccc1oc(C(=O)c3ccc(N(C)C)cc3)c(-c3ccccc3)c12` [Compound 264] yielded an IC50 of 101 to 999 nM.
Work on `Cc1cc(=O)oc2c1ccc1oc(C(=O)C3CCCCC3)c(-c3ccccc3)c12` [Compound 127] yielded an IC50 of 1000 to 10000 nM.
In the case of `O=C(c1ccccc1)c1oc2ccc3ccc(=O)oc3c2c1-c1ccccc1` [Compound 2], the IC50 is reported as 101 to 999 nM.
Compound `Cc1cc(=O)oc2c1ccc1oc(C(=O)c3ccccc3)c(C)c12` [Compound 154] has an IC50 of 101 to 999 nM.
With `Cc1cc(=O)oc2c1ccc1oc(C(=O)c3ccccc3)c(-c3ccc(Cl)c(Cl)c3)c12` [Compound 224] the IC50 was 101 to 999 nM.
Work on `Cc1cc(=O)oc2c1ccc1oc(C(=O)c3cccc(OCCO[Si](C)(C)C(C)(C)C)c3)c(-c3ccccc3)c12` [Compound 189] yielded an IC50 of 101 to 999 nM.
Compound `CC(=O)OCC1C(OCCOc2cccc(C(=O)c3oc4ccc5c(C)cc(=O)oc5c4c3-c3ccccc3)c2)OC(OC(C)=O)C(OC(C)=O)C1OC(C)=O` (stereo not shown) [Compound 194] has an IC50 of 101 to 999 nM.
`Cc1cc(=O)oc2c1ccc1oc(C(=O)c3ccccc3)c(C3CCCCC3)c12` [Compound 165] was tested, and the IC50 was 101 to 999 nM.
`O=Cc1cc(=O)oc2c1ccc1oc(C(=O)c3ccccc3)c(-c3ccccc3)c12` [Compound 10] showed an IC50 of 101 to 999 nM.
In the case of `Cc1cc(=O)oc2c1ccc1oc(C(=O)c3ccc(Cl)cc3)c(-c3ccccc3)c12` [Compound 49], the IC50 is reported as 101 to 999 nM.
`Cc1cc(=O)oc2c1ccc1oc(C(=O)c3ccc(F)c(F)c3)c(-c3ccccc3)c12` [Compound 60] was tested, and the IC50 was 101 to 999 nM.
Work on `Cc1cc(=O)oc2c1ccc1oc(C(=O)c3ccc(Br)cc3)c(-c3ccccc3)c12` [Compound 50] yielded an IC50 of 101 to 999 nM.
With `Cc1cc(=O)oc2c1ccc1oc(/C(=N/OCc3ccccc3)c3ccccc3)c(-c3ccccc3)c12` [Compound 175] the IC50 was 101 to 999 nM.
`Cc1cc(=O)oc2c1ccc1oc(C(=O)c3ccccc3O)c(-c3ccccc3)c12` [Compound 204] was tested, and the IC50 was 101 to 999 nM.
`Cc1cc(=O)oc2c1ccc1oc(C(=O)c3cccc(OCCCO[Si](C)(C)C(C)(C)C)c3)c(-c3ccccc3)c12` [Compound 190] gave an IC50 of 101 to 999 nM.
For `Cc1cc2ccc3oc(C(=O)c4ccccc4)c(-c4ccccc4)c3c2oc1=O` [Compound 3], the IC50 was 101 to 999 nM.
Compound `COc1ccc(-c2c(C(=O)c3ccccc3)oc3ccc4c(C)cc(=O)oc4c23)cc1` [Compound 248] has an IC50 of 101 to 999 nM.
Compound `CCCCCCCCCCc1c(C(=O)c2ccccc2)oc2ccc3c(C)cc(=O)oc3c12` [Compound 158] has an IC50 of 1000 to 10000 nM.
`COc1ccc(C(=O)c2oc3ccc4c(C)cc(=O)oc4c3c2-c2ccc(Br)cc2)cc1` [Compound 214] showed an IC50 of 1000 to 10000 nM.
In the case of `Cc1ccc(C(=O)c2oc3ccc4c(C)cc(=O)oc4c3c2-c2ccccc2)c(C)c1` [Compound 62], the IC50 is reported as 101 to 999 nM.
For `Cc1cc(=O)oc2c1ccc1oc(C(=O)c3cccc(OCCCCN4CCN(C)CC4)c3)c(-c3ccccc3)c12` [Compound 91], the IC50 was 1000 to 10000 nM.
For `Cc1cc(=O)oc2c1ccc1oc(C(=O)c3ccccc3)cc12` [Compound 153], the IC50 was 101 to 999 nM.
`Cc1cc(=O)oc2c1ccc1oc(C(=O)c3ccc(Br)s3)c(-c3ccccc3)c12` [Compound 98] was tested, and the IC50 was 101 to 999 nM.

From patent publication US8058427B2, “Coumarin compounds and their use for treating cancer” (National Health Research Institutes, priority 2008, dated 2011)
